Experimental data published in ChEMBL document CHEMBL3885861, “Open TG-GATES”.

Organism: Rattus norvegicus
Experiment: Open TG-GATES - Regimen: Single
Assay type: toxicity, organism-based, Sprague-Dawley
Set-up: regimen Single, gender Male, age 6 weeks
Settings: in vivo, iv, 6 mg/kg, route intravenous injection, dose level Low; for APTT / Bas / Eos / Fbg / Hb / Ht / Lym / MCH / MCHC / MCV / Mono / Neu / PT / Plat / RBC / Ret / WBC: tissue Blood; for KIDNEY_L / KIDNEY_R / KIDNEY_TOTAL: tissue Kidney; for LIVER: tissue Liver; for A/G / ALP / ALT / AST / BUN / CRE / Ca / Cl / DBIL / GLC / IP / K / LDH / Na / PL / RALB / TBIL / TC / TG / TP / gamma-GTP: tissue Plasma

NCCBr [BROMOETHANAMINE]
TERMINAL_BW (3 h): 221.9 g | APTT (3 h): 22.5 s | Bas (3 h): 0% | Eos (3 h): 0.4% | Fbg (3 h): 300 mg/dL | Hb (3 h): 13.3 g/dL | Ht (3 h): 39.3% | Lym (3 h): 77.8% | MCH (3 h): 21.5 pg | MCHC (3 h): 33.8% | MCV (3 h): 63.5 fL | Mono (3 h): 3% | Neu (3 h): 18% | PT (3 h): 16 s | Plat (3 h): 125.4 x10_4/uL | RBC (3 h): 618.4 x10_4/ul | Ret (3 h): 6.4% | WBC (3 h): 83.3 x10_2/uL | KIDNEY_L (3 h): 1 g | KIDNEY_R (3 h): 1 g | KIDNEY_TOTAL (3 h): 2 g | LIVER (3 h): 10.5 g | A/G (3 h): 1.2 | ALP (3 h): 1604 IU/L | ALT (3 h): 44.6 IU/L | AST (3 h): 78 IU/L | BUN (3 h): 14.4 mg/dL | CRE (3 h): 0.2 mg/dL | Ca (3 h): 10.8 mg/dL | Cl (3 h): 106.2 meq/L | DBIL (3 h): 0 mg/dL | GLC (3 h): 167.8 mg/dL | IP (3 h): 7.9 mg/dL | K (3 h): 4.4 meq/L | LDH (3 h): 187.8 IU/L | Na (3 h): 142 meq/L | PL (3 h): 140.8 mg/dL | RALB (3 h): 3 g/dL | TBIL (3 h): 0.02 mg/dL | TC (3 h): 76.8 mg/dL | TG (3 h): 101 mg/dL | TP (3 h): 5.4 g/dL | gamma-GTP (3 h): 2 IU/L | TERMINAL_BW (6 h): 218.1 g | APTT (6 h): 23.7 s | Bas (6 h): 0% | Eos (6 h): 0.6% | Fbg (6 h): 311 mg/dL | Hb (6 h): 13.3 g/dL | Ht (6 h): 39.1% | Lym (6 h): 83% | MCH (6 h): 21.1 pg | MCHC (6 h): 34.1% | MCV (6 h): 61.9 fL | Mono (6 h): 2.6% | Neu (6 h): 12.6% | PT (6 h): 16.2 s | Plat (6 h): 118.5 x10_4/uL | RBC (6 h): 632.6 x10_4/ul | Ret (6 h): 6.5% | WBC (6 h): 95.2 x10_2/uL | KIDNEY_L (6 h): 1 g | KIDNEY_R (6 h): 1 g | KIDNEY_TOTAL (6 h): 2 g | LIVER (6 h): 9.3 g | A/G (6 h): 1.1 | ALP (6 h): 1385.2 IU/L | ALT (6 h): 39 IU/L | AST (6 h): 71.4 IU/L | BUN (6 h): 10.6 mg/dL | CRE (6 h): 0.1 mg/dL | Ca (6 h): 10.5 mg/dL | Cl (6 h): 105.8 meq/L | DBIL (6 h): 0 mg/dL | GLC (6 h): 178.8 mg/dL | IP (6 h): 8.9 mg/dL | K (6 h): 4.4 meq/L | LDH (6 h): 147 IU/L | Na (6 h): 140.8 meq/L | PL (6 h): 128.8 mg/dL | RALB (6 h): 2.8 g/dL | TBIL (6 h): 0.02 mg/dL | TC (6 h): 74.4 mg/dL | TG (6 h): 49.2 mg/dL | TP (6 h): 5.4 g/dL | gamma-GTP (6 h): 2 IU/L | TERMINAL_BW (9 h): 207.3 g | APTT (9 h): 22.3 s | Bas (9 h): 0% | Eos (9 h): 0.6% | Fbg (9 h): 297 mg/dL | Hb (9 h): 13.4 g/dL | Ht (9 h): 38.5% | Lym (9 h): 80.4% | MCH (9 h): 21.4 pg | MCHC (9 h): 34.7% | MCV (9 h): 61.8 fL | Mono (9 h): 2.2% | Neu (9 h): 16.2% | PT (9 h): 16.3 s | Plat (9 h): 110.5 x10_4/uL | RBC (9 h): 623.6 x10_4/ul | Ret (9 h): 5.4% | WBC (9 h): 73.1 x10_2/uL | KIDNEY_L (9 h): 0.9 g | KIDNEY_R (9 h): 0.9 g | KIDNEY_TOTAL (9 h): 1.8 g | LIVER (9 h): 8 g | A/G (9 h): 1.2 | ALP (9 h): 1508.8 IU/L | ALT (9 h): 34 IU/L | AST (9 h): 70 IU/L | BUN (9 h): 12.8 mg/dL | CRE (9 h): 0.2 mg/dL | Ca (9 h): 10.5 mg/dL | Cl (9 h): 106.2 meq/L | DBIL (9 h): 0 mg/dL | GLC (9 h): 174 mg/dL | IP (9 h): 9.1 mg/dL | K (9 h): 4.3 meq/L | LDH (9 h): 129 IU/L | Na (9 h): 141.2 meq/L | PL (9 h): 121.8 mg/dL | RALB (9 h): 2.9 g/dL | TBIL (9 h): 0.018 mg/dL | TC (9 h): 71.6 mg/dL | TG (9 h): 48.4 mg/dL | TP (9 h): 5.4 g/dL | gamma-GTP (9 h): 1.4 IU/L | TERMINAL_BW (24 h): 221.5 g | APTT (24 h): 23.6 s | Bas (24 h): 0% | Eos (24 h): 0.8% | Fbg (24 h): 322.8 mg/dL | Hb (24 h): 14 g/dL | Ht (24 h): 40.5% | Lym (24 h): 79.8% | MCH (24 h): 21 pg | MCHC (24 h): 34.6% | MCV (24 h): 60.7 fL | Mono (24 h): 2.8% | Neu (24 h): 15.6% | PT (24 h): 16.4 s | Plat (24 h): 121.7 x10_4/uL | RBC (24 h): 666.6 x10_4/ul | Ret (24 h): 5.5% | WBC (24 h): 96.1 x10_2/uL | KIDNEY_L (24 h): 1 g | KIDNEY_R (24 h): 1.1 g | KIDNEY_TOTAL (24 h): 2.1 g | LIVER (24 h): 10.8 g | A/G (24 h): 1.1 | ALP (24 h): 1490 IU/L | ALT (24 h): 44.6 IU/L | AST (24 h): 67.6 IU/L | BUN (24 h): 18 mg/dL | CRE (24 h): 0.2 mg/dL | Ca (24 h): 10.7 mg/dL | Cl (24 h): 105.8 meq/L | DBIL (24 h): 0 mg/dL | GLC (24 h): 183.6 mg/dL | IP (24 h): 6.8 mg/dL | K (24 h): 4.6 meq/L | LDH (24 h): 187.8 IU/L | Na (24 h): 141.6 meq/L | PL (24 h): 162.8 mg/dL | RALB (24 h): 2.9 g/dL | TBIL (24 h): 0.01 mg/dL | TC (24 h): 90.8 mg/dL | TG (24 h): 99.4 mg/dL | TP (24 h): 5.6 g/dL | gamma-GTP (24 h): 1.8 IU/L
